One assay has as its target CDK12/CycK complex (Homo sapiens, UniProt Q9NYV4). Kind of assay: Measurement of CDK12 inhibitory activity by binding assay (BODIPY-FL labeled AT-7519 high concentration conditions, 1320 nM). The following applies: inhibitory rate against CDK12 at 1 μM test compound, 1320 nM BODIPY-FL-labeled AT-7519, 8 nM CDK12/CycK. In short, it runs like this:
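His-tagged CDK12/CycK (8 nM) was incubated with test compound, BODIPY-FL-AT-7519 tracer (1320 nM), Tb-streptavidin (0.2 nM) and biotin-anti-His antibody (0.4 nM) for 120 min at room temperature. TR-FRET ratio (BODIPY-FL/Tb) gave % inhibition versus no-compound control and 30 μM AT-7519 blank; compounds tested at 1 μM.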

A further assay relates to A2780 cells. Description: In vitro proliferation suppression test (CellTiter-Glo). Type of assay: cell-based, human. The settings on record: Homo sapiens, 72 h, A2780 cell proliferation inhibitory rate at 1 μM test compound, three days. In short, it runs like this: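 A2780 cells in RPMI1640 with 10% FBS were exposed to 1 μM compound for three days at 37° C, 5% CO2. CellTiter-Glo luminescence read; inhibition (%) calculated relative to wells without compound.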
A general note: Cellular ATP, detected with luciferase, serves as a proxy for viable cell number.

Assay [1] relates to Human breast cancer cells SUM149PT. Description: Antitumor action on SUM149PT cells tumor-bearing model. The settings on record: 60 mg/kg orally two times per day for 2 weeks; SUM149PT subcutaneous transplant in BALB/cAJcl-nu/nu mice; average tumor volume increase ratio vs control group. The assay is classed as in vivo. As to the method: Experimental Example 6: Antitumor Action on SUM149PT CELLS Tumor-Bearing Model
Human breast cancer cells SUM149PT were suspended in a solution of Matrigel (BD BIOSCIENCES):HBSS (Thermo Fisher Scientific)=1:1, and subcutaneously transplanted at 3×10^6 cells to the abdomen of BALB/cAJcl-nu/nu (CLEA Japan, Inc.). The tumor diameter of the engrafted tumor was measured and the tumor volume was calculated by the following formula. Tumor volume=major axis×minor axis×minor axis×(1/2)
Individuals having a tumor grown to a volume of about 120 mm^3 were selected, and 5 mice per group were used for the experiment. A suspension of the test compound in 0.5% methylcellulose solution (FUJIFILM Wako Pure Chemical Corporation) was orally administered at a dose of 60 mg/kg (10 mL/kg) two times per day for 2 weeks. The tumor volume was measured over time one day before the start of the administration, and every 4 days from day 3. The next day of the completion of medication for 14 days, the tumor diameter was finally measured and the tumor volume was calculated. The tumor proliferation rate of the test compound administration group in comparison with the control administration group was taken as an average tumor volume increase ratio T/C and calculated by the following formula. […]

The results in this text go back to US11584737B2, “Heterocyclic compound” (TAKEDA PHARMACEUTICAL COMPANY LIMITED, priority 2018, dated 2023).

Broadly, the inhibition is the share of the control response that was lost under treatment. Lower therefore signals a weak effect.

Chain of CDK12/CycK complex (Q9NYV4 whole entry, species assumed): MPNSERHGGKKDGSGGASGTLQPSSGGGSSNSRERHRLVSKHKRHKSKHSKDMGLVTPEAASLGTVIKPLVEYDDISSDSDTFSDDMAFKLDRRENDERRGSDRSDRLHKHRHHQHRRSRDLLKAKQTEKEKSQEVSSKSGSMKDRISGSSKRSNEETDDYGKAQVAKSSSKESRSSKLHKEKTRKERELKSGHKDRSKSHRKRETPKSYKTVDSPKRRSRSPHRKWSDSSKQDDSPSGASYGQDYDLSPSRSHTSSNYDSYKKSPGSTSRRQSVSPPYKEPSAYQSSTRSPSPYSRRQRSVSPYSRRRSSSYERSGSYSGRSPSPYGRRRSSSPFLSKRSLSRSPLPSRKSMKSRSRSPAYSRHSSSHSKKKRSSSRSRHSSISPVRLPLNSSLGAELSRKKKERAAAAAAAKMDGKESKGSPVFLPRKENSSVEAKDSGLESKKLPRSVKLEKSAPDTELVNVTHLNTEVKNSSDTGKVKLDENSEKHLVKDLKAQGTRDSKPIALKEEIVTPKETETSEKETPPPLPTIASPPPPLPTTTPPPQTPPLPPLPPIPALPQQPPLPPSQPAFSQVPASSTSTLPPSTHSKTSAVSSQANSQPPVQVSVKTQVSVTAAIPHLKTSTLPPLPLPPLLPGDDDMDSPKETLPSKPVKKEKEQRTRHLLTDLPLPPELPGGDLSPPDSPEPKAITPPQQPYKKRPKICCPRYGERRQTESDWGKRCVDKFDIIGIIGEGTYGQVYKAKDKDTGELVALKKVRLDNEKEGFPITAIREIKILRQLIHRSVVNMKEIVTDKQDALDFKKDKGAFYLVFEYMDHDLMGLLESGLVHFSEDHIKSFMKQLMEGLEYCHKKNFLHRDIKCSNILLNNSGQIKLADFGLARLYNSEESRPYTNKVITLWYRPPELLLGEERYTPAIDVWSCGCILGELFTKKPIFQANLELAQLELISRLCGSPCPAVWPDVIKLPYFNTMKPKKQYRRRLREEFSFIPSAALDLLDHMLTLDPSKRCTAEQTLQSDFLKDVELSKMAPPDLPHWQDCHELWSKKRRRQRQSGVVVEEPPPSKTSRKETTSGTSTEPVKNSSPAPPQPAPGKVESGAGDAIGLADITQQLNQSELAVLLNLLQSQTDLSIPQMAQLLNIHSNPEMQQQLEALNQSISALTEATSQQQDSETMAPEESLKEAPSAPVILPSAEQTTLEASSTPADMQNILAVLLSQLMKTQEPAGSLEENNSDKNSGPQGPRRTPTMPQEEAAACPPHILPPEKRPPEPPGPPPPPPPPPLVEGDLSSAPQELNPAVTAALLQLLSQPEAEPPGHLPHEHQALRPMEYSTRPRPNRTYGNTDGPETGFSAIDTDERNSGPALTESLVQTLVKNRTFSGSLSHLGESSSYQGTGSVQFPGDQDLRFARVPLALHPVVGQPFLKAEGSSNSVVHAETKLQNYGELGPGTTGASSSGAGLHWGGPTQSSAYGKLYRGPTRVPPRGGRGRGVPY
Chain of CDK12/CycK complex (O75909 whole entry partner, species assumed): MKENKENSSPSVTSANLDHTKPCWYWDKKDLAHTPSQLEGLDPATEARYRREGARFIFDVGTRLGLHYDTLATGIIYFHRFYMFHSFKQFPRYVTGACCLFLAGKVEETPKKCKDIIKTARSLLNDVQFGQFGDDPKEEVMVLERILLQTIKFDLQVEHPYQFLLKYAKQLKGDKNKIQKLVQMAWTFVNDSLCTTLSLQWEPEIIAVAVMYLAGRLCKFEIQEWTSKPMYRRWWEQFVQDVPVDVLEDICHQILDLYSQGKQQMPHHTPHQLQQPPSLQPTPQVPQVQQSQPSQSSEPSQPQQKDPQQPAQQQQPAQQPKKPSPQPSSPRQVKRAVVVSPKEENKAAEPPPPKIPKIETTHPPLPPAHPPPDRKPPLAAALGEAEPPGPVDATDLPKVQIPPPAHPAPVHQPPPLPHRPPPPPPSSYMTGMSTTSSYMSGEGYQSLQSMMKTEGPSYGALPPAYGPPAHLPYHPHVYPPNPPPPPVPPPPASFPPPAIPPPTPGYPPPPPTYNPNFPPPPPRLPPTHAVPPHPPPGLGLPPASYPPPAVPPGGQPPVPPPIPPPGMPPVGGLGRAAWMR

As for `COc1ncc(-c2cnc(N(C(=O)NCc3ccccc3)[C@H]3CC[C@H](Nc4ncc(C(F)(F)F)c(OC5COC5)n4)CC3)cn2)cn1` [Example 612, 3-benzyl-1-(5-(2-methoxypyrimidin-5-yl)pyrazin-2-yl)-1-(trans-4-((4-(oxetan-3-yloxy)-5-(trifluoromethyl)pyrimidin-2-yl)amino)cyclohexyl)urea], the inhibition at 1 µM at CDK12/CycK complex came to 100%; in the assay on A2780 cells, 97%. Besides, the “T/C (%)” value in assay [1] is listed as −22%.
